# From ChEMBL document CHEMBL1201862, “PubChem BioAssay data set” (2004)
#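 Cells were grown in 96-well plates and exposed to each compound for 48 hours at five concentrations; endpoints were interpolated linearly between bracketing concentrations, or set to the highest concentration if not reached. Abbreviation: GI50, concentration required for 50% inhibition of growth.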 Active and inactive are the calls of the source. No stated cut-off is given here; in the data, active = GI50 up to about 1.1 µM and inactive = higher.
# Tests used:
# Assay in all cases: DTP human tumour cell line panel, 48 h
# DLD-1 = test system: DLD-1
# DMS-114 = test system: DMS-114
# KM-20L2 = test system: KM-20L2
# LXFL 529 = test system: LXFL 529
# M19-MEL = test system: M19-MEL
# SNB-78 = test system: SNB-78
# HOP-18 = test system: HOP-18
# XF498 = test system: XF498
# RXF 631 = test system: RXF 631
SMILES,GI50 (DLD-1),GI50 (DMS-114),GI50 (KM-20L2),GI50 (LXFL 529),GI50 (M19-MEL),GI50 (SNB-78),GI50 (HOP-18),GI50 (XF498),GI50 (RXF 631)
O=C1NC2C(CCO)CC=C[C@H]2c2cc3c(cc21)OCO3 (some centres undefined),> 100 µM (inactive),> 100 µM (inactive),> 100 µM (inactive),> 100 µM (inactive),> 100 µM (inactive),> 100 µM (inactive),,,
CCCC1C(=O)CCc2c(OC)ccc(OC)c21 (centres undefined),> 100 µM (inactive),48.2 µM (inactive),> 100 µM (inactive),> 100 µM (inactive),> 100 µM (inactive),> 100 µM (inactive),2.61 µM (inactive),> 100 µM (inactive),
CC(C)c1cccc(=O)c(O)c1 [HINOKITIOL],5.31 µM (inactive),3.72 µM (inactive),4.27 µM (inactive),6.85 µM (inactive),13.3 µM (inactive),48.3 µM (inactive),15.3 µM (inactive),4.24 µM (inactive),30.5 µM (inactive)
CC(C)(C)C1CCC2c3c([nH]c4ncccc34)C3C(=O)N(c4ccccc4)C(=O)C3C2C1 (centres undefined),> 100 µM (inactive),80 µM (inactive),> 100 µM (inactive),> 100 µM (inactive),> 100 µM (inactive),40.4 µM (inactive),> 100 µM (inactive),> 100 µM (inactive),
O=C1C2=C(CC3C(C2)C3(Br)Br)C(=O)C2=C1CC1C(C2)C1(Br)Br (centres undefined),> 100 µM (inactive),,> 100 µM (inactive),> 100 µM (inactive),52.8 µM (inactive),> 100 µM (inactive),> 100 µM (inactive),> 100 µM (inactive),> 100 µM (inactive)
CCCCCCCCCCCCCC/C(C(=O)OC)=C(/O)C(=O)OCC,30.5 µM (inactive),> 100 µM (inactive),,39.3 µM (inactive),54.8 µM (inactive),64.1 µM (inactive),27.6 µM (inactive),20.4 µM (inactive),33 µM (inactive)
NC1=NCCC1(c1ccccc1)c1ccccn1 (centres undefined),,> 100 µM (inactive),> 100 µM (inactive),> 100 µM (inactive),> 100 µM (inactive),> 100 µM (inactive),> 100 µM (inactive),> 100 µM (inactive),
Cc1cc(NS(=O)(=O)c2ccc(NC(=O)c3cccc4c(Nc5ccc(S(=O)(=O)Nc6cc(C)on6)cc5)c5ccc(Cl)cc5nc34)cc2)no1,63.2 µM (inactive),38.9 µM (inactive),74.1 µM (inactive),43.2 µM (inactive),41.9 µM (inactive),91.6 µM (inactive),14.9 µM (inactive),56.6 µM (inactive),
NC1=NC2=C(CCCC2)C(c2cccs2)S1 (centres undefined),,42.8 µM (inactive),> 100 µM (inactive),> 100 µM (inactive),> 100 µM (inactive),> 100 µM (inactive),33.5 µM (inactive),> 100 µM (inactive),
Cc1cc(=O)n2c(cc3cccccc32)n1,,,> 100 µM (inactive),> 100 µM (inactive),,> 100 µM (inactive),,,
CC1=C(c2cc(C(=O)Nc3ccc(Cl)cc3)nc(S)n2)Sc2ccccc2N1,> 100 µM (inactive),> 100 µM (inactive),> 100 µM (inactive),> 100 µM (inactive),> 100 µM (inactive),> 100 µM (inactive),> 100 µM (inactive),> 100 µM (inactive),> 100 µM (inactive)
CCOC(=O)c1ccc(NC(=O)SCCC(=O)O)cc1,> 100 µM (inactive),> 100 µM (inactive),> 100 µM (inactive),69 µM (inactive),,> 100 µM (inactive),,,
CC(C)(C)NC(=O)C12C3C4C1C1C2C3C41I (centres undefined),,> 100 µM (inactive),> 100 µM (inactive),> 100 µM (inactive),> 100 µM (inactive),> 100 µM (inactive),,> 100 µM (inactive),> 100 µM (inactive)
COc1ccc([C@@H]2C[C@@H]3C(=O)OC(=O)[C@@H]3c3c2c2ccccc2n3C)cc1,> 100 µM (inactive),> 100 µM (inactive),,> 100 µM (inactive),> 100 µM (inactive),,,> 100 µM (inactive),> 100 µM (inactive)
CC[N+](CC)(CC)Cc1cn(S(=O)(=O)c2ccccc2)c2ccccc12,> 100 µM (inactive),> 100 µM (inactive),> 100 µM (inactive),,> 100 µM (inactive),,,> 100 µM (inactive),
C/C(=N/O)C1CC=C(S(=O)(=O)c2ccccc2)C1 (centres undefined),> 100 µM (inactive),,> 100 µM (inactive),> 100 µM (inactive),> 100 µM (inactive),,,,
CC1=NN(c2ccccc2)C(=O)C1/N=N/c1ccc(Br)c(C)c1 (centres undefined),> 100 µM (inactive),> 100 µM (inactive),> 100 µM (inactive),> 100 µM (inactive),> 100 µM (inactive),> 100 µM (inactive),0.0562 µM (active),> 100 µM (inactive),> 100 µM (inactive)
COC(=O)C1=CC(=O)C(C(=O)Nc2ccc(OC)cc2)C(c2ccccc2)O1 (centres undefined),> 75.5 µM (inactive),29.7 µM (inactive),> 78.2 µM (inactive),25.9 µM (inactive),,37.9 µM (inactive),,,37.2 µM (inactive)
Cc1cc(C)nc(NS(=O)(=O)c2ccc(NC(=O)c3cccc4c(=O)c5ccccc5[nH]c34)cc2)n1,20.7 µM (inactive),18.4 µM (inactive),19.5 µM (inactive),14.3 µM (inactive),,21.3 µM (inactive),18.5 µM (inactive),13.5 µM (inactive),60 µM (inactive)
COC(=O)C(C(=O)OC)C1CCCC(=O)C1 (centres undefined),> 100 µM (inactive),,> 100 µM (inactive),> 100 µM (inactive),> 100 µM (inactive),> 100 µM (inactive),> 100 µM (inactive),> 100 µM (inactive),
CN(Cc1ccccc1)/C(=N\C#N)N(Cc1ccccc1)Cc1ccccc1,21 µM (inactive),,19.6 µM (inactive),21.9 µM (inactive),22.8 µM (inactive),26.3 µM (inactive),,,
O=c1c(Br)cc2nc3ccccc3sc-2c1Br,> 100 µM (inactive),17.9 µM (inactive),> 100 µM (inactive),28.1 µM (inactive),17.5 µM (inactive),> 100 µM (inactive),,27.2 µM (inactive),> 100 µM (inactive)
O=C1C(=O)N(c2ccc(Cl)cc2Cl)C(=O)C(=O)C1c1nc2ccccc2o1,> 100 µM (inactive),,> 100 µM (inactive),> 100 µM (inactive),> 100 µM (inactive),> 100 µM (inactive),> 100 µM (inactive),> 100 µM (inactive),> 100 µM (inactive)
Cc1cc([N+](=O)[O-])c(C)c2c1[nH]c1ccc(Cl)cc12,> 10 µM (inactive),> 100 µM (inactive),,,> 100 µM (inactive),> 100 µM (inactive),> 100 µM (inactive),> 100 µM (inactive),
[N-]=[N+]=Nc1ccccc1Oc1ccccc1,> 100 µM (inactive),> 100 µM (inactive),> 100 µM (inactive),> 100 µM (inactive),> 100 µM (inactive),> 100 µM (inactive),,> 100 µM (inactive),
CCN(CC)CCCNC(=O)Cc1ccccc1Nc1c(Cl)cccc1Cl,15 µM (inactive),13.6 µM (inactive),3.81 µM (inactive),7.67 µM (inactive),4.97 µM (inactive),15.9 µM (inactive),,8.13 µM (inactive),
CCOC(=O)c1cnc2c(ccc3ncccc32)c1OCC,77.3 µM (inactive),> 100 µM (inactive),> 100 µM (inactive),> 100 µM (inactive),> 100 µM (inactive),> 100 µM (inactive),> 100 µM (inactive),,84.5 µM (inactive)
CN(C)c1ccc(C(C#N)NNC(=O)Cc2ccccc2)cc1 (centres undefined),> 100 µM (inactive),> 100 µM (inactive),> 100 µM (inactive),> 100 µM (inactive),> 100 µM (inactive),> 100 µM (inactive),> 100 µM (inactive),,
CCOC(=O)c1ccc(/N=N\c2ccc(N(CCC#N)CCC#N)cc2C)cc1,> 100 µM (inactive),> 100 µM (inactive),,35.9 µM (inactive),> 100 µM (inactive),> 100 µM (inactive),51.6 µM (inactive),,> 100 µM (inactive)
Nc1c(-c2ccc(Cl)cc2)[n+]([O-])c2ccccc2[n+]1[O-],88.7 µM (inactive),46.1 µM (inactive),> 100 µM (inactive),52.7 µM (inactive),> 100 µM (inactive),> 100 µM (inactive),20.7 µM (inactive),42.7 µM (inactive),
